Data reported in publication PMC8065987, “Identification of Anti-Inflammatory and Anti-Proliferative Neolignanamides from Warburgia ugandensis Employing Multi-Target Affinity Ultrafiltration and LC-MS” (Pharmaceuticals, 2021).
Like-named read-outs stand apart in the source and are kept apart here.

How the values were obtained:
COX-2 [1] = biological target: T1, COX-2 (Homo sapiens, UniProt P35354); assay: Affinity ultrafiltration HPLC-MS/MS (AUF-HPLC-MS/MS) of WE-P with COX-2; design: purchased Wuhan Antgene Biotechnology Co., Ltd. (Wuhan, China); settings: relative binding strength = Aactive/Asample × 100%; peak in WE-P; n = 3
T1 sequence (P35354 18-604): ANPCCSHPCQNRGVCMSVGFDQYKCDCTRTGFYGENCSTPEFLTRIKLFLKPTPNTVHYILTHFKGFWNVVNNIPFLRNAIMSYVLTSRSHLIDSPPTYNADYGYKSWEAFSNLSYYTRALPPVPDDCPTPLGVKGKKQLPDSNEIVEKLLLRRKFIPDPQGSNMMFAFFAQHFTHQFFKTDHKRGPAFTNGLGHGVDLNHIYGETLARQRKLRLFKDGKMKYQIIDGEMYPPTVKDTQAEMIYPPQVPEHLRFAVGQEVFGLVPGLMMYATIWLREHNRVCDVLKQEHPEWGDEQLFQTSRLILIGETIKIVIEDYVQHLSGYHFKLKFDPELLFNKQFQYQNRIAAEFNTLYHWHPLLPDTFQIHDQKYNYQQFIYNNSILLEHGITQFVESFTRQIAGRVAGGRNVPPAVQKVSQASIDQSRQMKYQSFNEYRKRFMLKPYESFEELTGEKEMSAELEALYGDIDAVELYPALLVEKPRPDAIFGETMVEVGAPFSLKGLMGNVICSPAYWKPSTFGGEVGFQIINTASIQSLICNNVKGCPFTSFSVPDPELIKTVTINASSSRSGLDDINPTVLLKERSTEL
Protocol: (§1) The relative binding strength (RBS) was employed to compare the variation of the correlated peak areas in the AUF-HPLC-UV chromatograms before and after incubation with enzymes to evaluate the affinity binding abilities between potential ligands and target enzymes. The RBS formula is expressed as: RBS = (Aactive/Asample) × 100%, where the Aactive represents the peak areas obtained from the WE-P samples incubated with COX-2, 5-LOX, Top I or Top II, respectively; the Asample represents the peak areas obtained from WE-P samples without ultrafiltration. […] Namely, the special binding capacities of peak 2 with COX-2, 5-LOX, Top I and Top II might be stronger than that of peak 1. […] Therefore, it could be preliminarily estimated that peak 1 and peak 2 were the main bioactive components in WE-P which were closely related to its anti-inflammatory and anti-proliferative activities. These compounds were then identified based on their MS/MS data, related references and NMR or UPLC-QTOF-MS/MS data of isolated compounds, and the results are shown in Table 2.
(§2) Affinity ultrafiltration screening was slightly modified and carried out according to some previous studies. Firstly, approximately 100 µL of WE-P (10.0 mg/mL) were incubated with 10 µL of enzymes (2 U, COX-2, 5-LOX, Top I or Top II), and 90 µL of Tris-HCl (pH = 7.8) at 37 °C in the darkness for 1 h. […]

5-LOX = biological target: T2, 5-LOX (Homo sapiens, UniProt P09917); assay: Affinity ultrafiltration HPLC-MS/MS (AUF-HPLC-MS/MS) of WE-P with 5-LOX; settings: relative binding strength = Aactive/Asample × 100%; peak in WE-P; n = 3
T2 construct: purchased Cayman Chemical Co., Ltd. (Ann Arbor, MI, USA)
T2 sequence (P09917 1-674): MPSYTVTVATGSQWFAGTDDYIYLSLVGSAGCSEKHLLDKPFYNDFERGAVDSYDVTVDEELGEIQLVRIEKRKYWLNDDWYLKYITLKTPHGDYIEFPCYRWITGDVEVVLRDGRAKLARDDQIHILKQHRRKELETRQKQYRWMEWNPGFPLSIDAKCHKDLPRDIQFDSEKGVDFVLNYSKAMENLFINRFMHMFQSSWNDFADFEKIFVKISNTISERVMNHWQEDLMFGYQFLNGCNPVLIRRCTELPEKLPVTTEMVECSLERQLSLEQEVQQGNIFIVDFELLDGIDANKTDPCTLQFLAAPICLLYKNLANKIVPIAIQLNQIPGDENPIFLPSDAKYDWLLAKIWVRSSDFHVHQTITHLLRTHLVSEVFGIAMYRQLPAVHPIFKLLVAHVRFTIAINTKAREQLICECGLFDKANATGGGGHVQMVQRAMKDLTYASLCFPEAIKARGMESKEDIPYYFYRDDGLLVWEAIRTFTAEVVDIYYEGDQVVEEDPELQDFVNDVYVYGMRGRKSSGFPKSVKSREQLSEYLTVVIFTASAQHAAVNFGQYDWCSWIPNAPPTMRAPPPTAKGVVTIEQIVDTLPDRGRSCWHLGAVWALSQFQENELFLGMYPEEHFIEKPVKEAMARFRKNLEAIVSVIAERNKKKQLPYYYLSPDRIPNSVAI
Protocol: as §1, §2

COX-2 [2] = biological target: T1, COX-2; assay: In vitro COX-2 inhibitory assay (COX-2 (human) inhibitor screening assay kit, fluorescence); assay type: biochemical; design: purchased Beyotime Biotechnology (Shanghai, China) S0168; settings: triplicate; read-out: COX-2 inhibition IC50 (isolated compounds)
Protocol: Thirdly, 10 µL COX-2 probe was added into each well. […] The experiments were performed in triplicate.

Hela cells [3] = assay: Cell proliferative assay (SRB), Hela; assay type: cell-based; settings: Homo sapiens, 48 h, read-out: Anti-proliferative IC50, Hela cells
Protocol: (§3) Human non-small cell lung adenocarcinoma cell line (A549) and human cervical cancer cell line (Hela) were obtained from the American Type Culture Collection (ATCC, Manassas, VA, USA) and maintained in Ham’s F-12K medium supplemented with 10% fetal bovine serum (FBS), 1% penicillin, and 1% streptomycin in a cell incubator under humidified conditions with 5% CO2 at 37 °C, and the procedures were slightly modified from previous method. To evaluate the proliferative activity of A549 cell line and Hela cell line, the SRB assay was carried out according to the manufacturer’s instructions (Beyotime, Shanghai, China). Briefly, these two cell lines were seeded into 96-well plates at a density of 1.0 × 10^4 per well. After 24 h incubation, the tested samples were dissolved in the DMSO and sequentially diluted with cell culture medium and added to each well at the specified concentrations. Cell viability was assessed by SRB 48 h later. Absorbances was measured by a Tecan microplate reader (Tecan Infinite M200 Pro, Tecan Group Ltd., Männedorf, Switzerland) at a wavelength of 540 nm. The experiments were performed in triplicate. The anti-proliferative activities were expressed as IC50. […] The data were expressed as mean ± standard deviation (SD) of three replicates.

Top II = assay: Affinity ultrafiltration HPLC-MS/MS (AUF-HPLC-MS/MS) of WE-P with Top II; settings: relative binding strength = Aactive/Asample × 100%; peak in WE-P; n = 3
Protocol: as §1, §2

A549 cells [4] = assay: Cell proliferative assay (SRB), A549; assay type: cell-based; settings: Homo sapiens, 48 h, read-out: Anti-proliferative IC50, A549 cells
Protocol: as §3

Top I = assay: Affinity ultrafiltration HPLC-MS/MS (AUF-HPLC-MS/MS) of WE-P with Top I; settings: relative binding strength = Aactive/Asample × 100%; peak in WE-P; n = 3
Protocol: as §1, §2

[5] = tested on: LNCaP human prostate cancer cell; design: method as in PMID 11858758; settings: previous study; cited from earlier work
MCF-7 = tested on: MCF-7; design: method as in PMID 27504537; settings: 72 h; read-out: GI50 (the 50% growth inhibition in 72 h), MCF-7; cited from earlier work
[6] = tested on: human mammary adenocarcinoma (MCF-7) cells; design: method as in PMID 33301798; settings: previous study; read-out: Anti-proliferative IC50, MCF-7 cells; cited from earlier work
A549 cells [7] = tested on: A549 cells; design: method as in PMID 33301798; settings: previous study; read-out: Anti-proliferative IC50, A549 cells; cited from earlier work
RAW 264.7 cell line = tested on: RAW 264.7 cell line; design: method as in doi:10.1016/j.phytol.2019.01.020; settings: LPS-stimulated RAW 264.7; read-out: Inhibition of NO production IC50; cited from earlier work
[8] = tested on: human prostate cancer (PC-3) cells; design: method as in PMID 27504537; settings: 72 h; read-out: GI50 (the 50% growth inhibition in 72 h), PC-3; cited from earlier work
[9] = tested on: human colorectal adenocarcinoma (Caco-2) cells; design: method as in PMID 27504537; settings: inactive or poorly active; cited from earlier work
[10] = tested on: human peripheral blood mononuclear cells (PBMCs) stimulated by lipopolysaccharide (LPS); design: method as in PMID 32877711; settings: 100 µM; cited from earlier work
Hela cell line = tested on: Hela cell line; design: method as in PMID 32212861; settings: previous study; cited from earlier work
Hela cells [11] = tested on: Hela cells; design: method as in PMID 33301798; settings: previous study; read-out: Anti-proliferative IC50, Hela cells; cited from earlier work

With `COc1cc(C2Oc3c(OC)cc(/C=C\C(=O)NCCc4ccc(O)cc4)cc3C2C(=O)NCCc2ccc(O)cc2)ccc1O` (stereo not drawn) [Compound 1, N-cis-grossamide] the “UF-RBS (%) COX-2” value (COX-2 [1]) was 20.15 ± 0.12%, the “UF-RBS (%) 5-LOX” value (5-LOX) was 16.74 ± 0.65% and the IC50 (COX-2 [2]) was 4.41 ± 0.249 µM. The IC50 (Hela cells [3]) was 84.4 ± 1.79 µM, the “UF-RBS (%) Top II” value (Top II) was 24.53 ± 1.54% and the IC50 (A549 cells [4]) was over 100 µM. For the same compound, the “UF-RBS (%) Top I” value (Top I) was 34.25 ± 2.81%.

In the case of `COc1cc(C2Oc3c(OC)cc(/C=C/C(=O)NCCc4ccc(O)cc4)cc3C2C(=O)NCCc2ccc(O)cc2)ccc1O` (stereo not drawn) [Compound 2, N-trans-grossamide], the “Cytotoxicity in cultured LNCaP cells” value [5] is given as “moderate cytotoxicity”, the “UF-RBS (%) COX-2” value (COX-2 [1]) is given as 27.39 ± 1.58% and the “UF-RBS (%) 5-LOX” value (5-LOX) is given as 42.00 ± 1.26%. For the same compound, the GI50 (MCF-7) was 24 µM, the IC50 [6] was 11.4 ± 1.62 µM and the IC50 (COX-2 [2]) was 1.95 ± 0.381 µM. The IC50 (Hela cells [3]) was 72.8 ± 0.839 µM, the IC50 (A549 cells [7]) was 13.5 ± 3.66 µM and the IC50 (RAW 264.7 cell line) was 52.5 ± 6.1 µM. For the same compound, the GI50 [8] was 21 µM, the GI50 [9] was over 100 µM and the “Release of GM-CSF” value [10] was 1.61 % of LPS control. The “Release of IL-1β” value [10] was 2.14 % of LPS control, the “Release of IL-2” value [10] was 11.61 % of LPS control and the “Release of TNF-α” value [10] was 0.06 % of LPS control. The “UF-RBS (%) Top II” value (Top II) was 58.57 ± 3.82%, the “Anti-proliferative activity on Hela cell line” value (Hela cell line) was “moderate anti-proliferative activity” and the IC50 (A549 cells [4]) was over 100 µM. The “UF-RBS (%) Top I” value (Top I) was 76.2 ± 5.20% and the IC50 (Hela cells [11]) was 20.1 ± 3.05 µM.
